Experimental data as given in the supplement of paper PMC13380429.

Experiments:
Conditions in all cases: 72 h
Calu-3 [1] = test: relative viability EC50 (midpoint between 100% and the lowest measured viability); higher = less toxic
HepG2 [2] = test: as above
Vero E6 [3] = test: as above
U2OS [4] = test: as above
Caco-2 [5] = test: as above
Calu-3 [6] = test: cell viability relative to DMSO; higher = less toxic
HepG2 [7] = test: as above
Vero E6 [8] = test: as above
U2OS [9] = test: as above
Caco-2 [10] = test: as above
Calu-3 [11] = test: drug sensitivity score (DSS) for viability; higher = more toxic; extreme values may be limits of the assay
HepG2 [12] = test: as above
Vero E6 [13] = test: as above
U2OS [14] = test: as above
Caco-2 [15] = test: as above

Structure (SMILES) | relative viability EC50 (Calu-3 [1]) [µM] | relative viability EC50 (HepG2 [2]) [µM] | relative viability EC50 (Vero E6 [3]) [µM] | relative viability EC50 (U2OS [4]) [µM] | relative viability EC50 (Caco-2 [5]) [µM] | cell viability (Calu-3 [6]; 1 nM) [%] | cell viability (Calu-3 [6]; 10 nM) [%] | cell viability (Calu-3 [6]; 100 nM) [%] | cell viability (Calu-3 [6]; 1000 nM) [%] | cell viability (Calu-3 [6]; 10000 nM) [%] | cell viability (HepG2 [7]; 1 nM) [%] | cell viability (HepG2 [7]; 10 nM) [%] | cell viability (HepG2 [7]; 100 nM) [%] | cell viability (HepG2 [7]; 1000 nM) [%] | cell viability (HepG2 [7]; 10000 nM) [%] | cell viability (Vero E6 [8]; 1 nM) [%] | cell viability (Vero E6 [8]; 10 nM) [%] | cell viability (Vero E6 [8]; 100 nM) [%] | cell viability (Vero E6 [8]; 1000 nM) [%] | cell viability (Vero E6 [8]; 10000 nM) [%] | cell viability (U2OS [9]; 1 nM) [%] | cell viability (U2OS [9]; 10 nM) [%] | cell viability (U2OS [9]; 100 nM) [%] | cell viability (U2OS [9]; 1000 nM) [%] | cell viability (U2OS [9]; 10000 nM) [%] | cell viability (Caco-2 [10]; 1 nM) [%] | cell viability (Caco-2 [10]; 10 nM) [%] | cell viability (Caco-2 [10]; 100 nM) [%] | cell viability (Caco-2 [10]; 1000 nM) [%] | cell viability (Caco-2 [10]; 10000 nM) [%] | drug sensitivity score (Calu-3 [11]) | drug sensitivity score (HepG2 [12]) | drug sensitivity score (Vero E6 [13]) | drug sensitivity score (U2OS [14]) | drug sensitivity score (Caco-2 [15])
CCCCCCCCCCCCCCCCCCN(CCCCCCCCCCCCCCCCCC)CCCN(CCO)CCO [avridine] | > 10 | > 10 | > 10 | > 10 | > 10 | 91.5 | 101 | 101 | 95.7 | 108 | 109 | 98.1 | 98 | 106 | 108 | 104 | 101 | 106 | 98.5 | 102 | 95.7 | 101 | 98.9 | 104 | 100 | 106 | 97 | 90.4 | 105 | 146 | 0 | 0 | 0 | 0 | 0
O=C(c1ccccc1)c1ccc2n1CCC2C(=O)O (stereo not given) [ketorolac] | > 10 | > 10 | > 10 | > 10 | > 10 | 95.7 | 109 | 110 | 99.5 | 104 | 102 | 107 | 113 | 97.7 | 87.2 | 102 | 104 | 108 | 105 | 96.1 | 99.5 | 105 | 104 | 96.6 | 92.9 | 103 | 123 | 110 | 98.3 | 91.8 | 0 | 0.2 | 0 | 0 | 0
O=C(O)CNC(=O)c1ccccc1 [hippuric-acid] | > 10 | > 10 | > 10 | > 10 | > 10 | 99 | 97.6 | 94.3 | 96.6 | 99.9 | 100 | 98.3 | 99.4 | 102 | 95.7 | 96 | 98.1 | 97.1 | 94.7 | 100 | 100 | 99.3 | 106 | 95.2 | 95.7 | 96.9 | 107 | 89.2 | 90 | 92.8 | 0 | 0 | 0 | 0 | 0.4
C[C@@H]1c2ccccc2CN1CC1=NCCN1 (racemic) | > 10 | > 10 | > 10 | > 10 | > 10 | 107 | 96.5 | 102 | 108 | 114 | 100 | 86.9 | 109 | 116 | 116 | 95.9 | 97.8 | 95.4 | 92.9 | 102 | 97.4 | 94.8 | 101 | 96.3 | 104 | 100 | 92.4 | 89.9 | 100 | 121 | 0 | 0 | 0 | 0 | 0
CC(=O)N1CCC(C(=O)N(CCCN2CCC(Cc3ccc(C(N)=O)cc3)CC2)c2ccc(C)c(Cl)c2)CC1 [TAK-220] | > 10 | > 10 | > 10 | > 10 | > 10 | 100 | 101 | 98.3 | 101 | 97.9 | 99.9 | 87.2 | 94.1 | 94.5 | 98.6 | 113 | 101 | 106 | 92.4 | 106 | 97.3 | 99.3 | 99.4 | 99.9 | 95.3 | 85.2 | 95.1 | 93.5 | 102 | 98.3 | 0 | 0 | 0 | 0 | 0
CCN[C@H]1C[C@H](C)S(=O)(=O)c2sc(S(N)(=O)=O)cc21 [dorzolamide] | > 10 | > 10 | > 10 | > 10 | > 10 | 100 | 100 | 95.7 | 88.3 | 98.4 | 113 | 93.7 | 104 | 94.9 | 99.4 | 98.5 | 101 | 92.6 | 98.1 | 91.1 | 95.2 | 100 | 93.6 | 101 | 97.4 | 101 | 108 | 84 | 94.7 | 100 | 0 | 0 | 0 | 0 | 0
C[C@@H](O)[C@H](N)C(=O)N1CCC[C@H]1C(=O)N1CCC[C@H]1C(=O)N[C@H](C(N)=O)[C@@H](C)O [rapastinel] | > 10 | > 10 | > 10 | > 10 | > 10 | 95.3 | 101 | 91.4 | 96.8 | 106 | 100 | 110 | 91.9 | 104 | 97.6 | 97.6 | 99.5 | 95 | 102 | 114 | 95.7 | 94.4 | 98.8 | 95.6 | 97.3 | 100 | 88 | 97.6 | 97.1 | 92.6 | 0 | 0 | 0 | 0 | 0
CCCC(CCC)C(=O)O[C@H]1C[C@H]2CC[C@@H](C1)[N+]2(C)C [anisotropine] | > 10 | > 10 | > 10 | > 10 | > 10 | 94.7 | 107 | 93.9 | 97.6 | 92 | 102 | 96.9 | 99 | 90.2 | 102 | 100 | 96.1 | 97.8 | 96.6 | 100 | 101 | 99 | 90.3 | 99.9 | 90.7 | 94.8 | 95.2 | 86.6 | 97.8 | 99.1 | 0 | 0 | 0 | 0 | 0
O=C(Nc1cnc(Cl)nc1)c1ccc(F)c(F)c1 | > 10 | > 10 | > 10 | > 10 | > 10 | 98.5 | 98.9 | 90.7 | 95.5 | 103 | 96.5 | 96.9 | 97.7 | 96.5 | 93.3 | 94.5 | 92.1 | 99.4 | 96.9 | 95.4 | 102 | 95.1 | 95.6 | 98 | 98.9 | 101 | 96.7 | 95 | 95.5 | 93.8 | 0 | 0 | 0 | 0 | 0
CCCCCCCCCCCCCCCC[N+](C)(C)Cc1ccccc1 [benzyldimethylhexadecylammonium] | 3.39 | 2.41 | > 10 | 3.28 | 2.12 | 94.9 | 105 | 105 | 102 | 41.2 | 113 | 101 | 102 | 93.7 | 30.6 | 99 | 94.6 | 100 | 94.5 | 92.8 | 99.6 | 101 | 102 | 102 | 14.1 | 93.9 | 96.1 | 91.9 | 89.4 | 18 | 3 | 4.8 | 0 | 4.6 | 6.3
O=C(OCCOCCO)c1ccccc1Nc1cccc(C(F)(F)F)c1 [etofenamate] | > 10 | > 10 | > 10 | > 10 | > 10 | 108 | 95.6 | 95.8 | 82.5 | 96.3 | 96.2 | 105 | 92.4 | 101 | 104 | 100 | 103 | 103 | 89.3 | 81.7 | 102 | 95.2 | 98.7 | 100 | 96.3 | 98.1 | 91 | 92.4 | 90.8 | 96.1 | 0.1 | 0 | 1.5 | 0 | 0
COc1ccc2cc(CCC(C)=O)ccc2c1 [nabumetone] | > 10 | > 10 | > 10 | > 10 | > 10 | 98.2 | 90.6 | 86.7 | 106 | 95.4 | 99.8 | 97.8 | 105 | 90.8 | 95.8 | 101 | 104 | 101 | 93.8 | 88.1 | 98.5 | 95.2 | 99.9 | 93.3 | 101 | 111 | 90.4 | 89.2 | 97.4 | 94.5 | 0 | 0 | 0.3 | 0 | 0
